Measurements: patent US20070009529A1, “Agents that dissolve arterial thrombi” (New York University, priority 2002, published 2007)
Entries after “also recorded” stand apart in the source; their conditions may differ. Like-named read-outs stand apart in the source and are kept apart here. *: point of attachment. Biotin = O=C1N[C@H]2[C@H](CS[C@H]2CCCCC(=O)*)N1

Legend:
[1] = test system: platelets; test: Effect of inhibitors on anti-GPIIIa49-66 Ab-induced platelet particle formation / oxidative fragmentation; assay type: cell-based, human; parameters: effect on Ab-induced platelet particle formation: unit of the concentration uncertain
Method: Induction of Platelet Particles. […] 1×10^7 gel-filtered platelets/ml were labelled with an anti-GPIIb-FITC monoclonal Ab (MoAb) (3B2) or an anti-GPIIIa-FITC MoAb (Ancell, Bayport, Minn.), 10 ug/ml for 30 min at 4° C., centrifuged at 1000 g×6 min at room temperature, and resuspended in Tyrodes buffer. […] (see below).
Debris and dead cells were excluded using scatter gates. Only cells with low orthogonal light scattering were included in the sorting gates. Gates were adjusted for control platelets by exclusion of other blood cells. Intact platelets were monitored in the right upper quadrant (RUQ) with the Y-axis measuring forward-scatter and the X-axis measuring fluorescence. A shift in the fluorescent particles from RUQ to LUQ reflected % platelet particle induction of 10,000 counted platelets/particles.
However, a recent report by Lerner and coworkers [19]provided evidence that Ab's in general are capable of inducing peroxide formation from an assortment of Ag's depending upon the tryptophan and cysteine composition and orientation. […] This hypothesis was tested with the use of diphenyleneiodonium (DPI), an inhibitor of NADH/NADPH oxidase, as well as other flavoprotein oxidases.

[2] = test system: platelets; test: Inhibition of HUVEC ADAMTS-18 induced platelet oxidation fragmentation; assay type: cell-based; details: single agent, n=7
From the text: Recombinant ADAMTS-18 was then made with the expression vector pBudCE4.1 in 293T cells. This peptide induced platelet 12(S)—HETE and oxidation/fragmentation in an identical kinetic fashion as anti-GPIIIa49-66 antibody. Both expressed rADAMTS-18, and HUVEC conditioned media ADAMTS-18 could be activated by thrombin (0.5μ/mL and then neutralized with hirudin), with optimum effect at one hour (n=4). HUVEC ADAMTS-18 induced oxidation fragmentation could be inhibited about 50% by an scFV antibody raised against the ADAMTS-18 (18-mer) peptide as well as GPIIIa49-66 peptide, as well as RGDS (GPIIIa ligand binding site) (n=7).

[3] = test system: mice; details: earlier reports [10], [14]; cited from earlier work
[4] = test system: platelets; test: Platelet oxidation/fragmentation induced independently of anti-GPIIIa49-66 (DCHF-loaded platelets); assay type: cell-based
[5] = test system: p47phox(−/−), gp91phox(−/−)KO, 12-LO(−/−)KO mouse platelets; test: Platelet oxidation in NADPH oxidase and 12-LO KO mouse platelets; assay type: cell-based; details: gp91phox(−/−)KO and 12-LO(−/−)KO mouse platelets
Method: It has also been discovered that platelet oxidation/fragmentation can be induced independently of anti-GPIIIa49-66 by […] A23187, a Ca^++ ionophore, or 0.4 μM PMA, a protein kinase C activator. […] Their reactivity is inhibited by the oxidation scavengers catalase (H2O2) and DPI (diphenylene iodonium, an inhibitor of NADPH-oxidase), and is absent in NADPH oxidase p47phox(−/−), gp91phox(−/−)KO as well as 12-LO(−/−)KO mouse platelets. Thus, anti-GPIIIa49-66 could be inducing the intracellular effects of ionophore and PMA.

[6] = test system: platelets; test: Ca++ flux (fura-2, AM) in activation of oxidative platelet death
[7] = 4 Hrs, doubling concentrations from 50 uM/ml catalase and 5 uM/ml DPI, no UV/light irradiation
[8] = inhibitor at 2 (unit uncertain)

With `O=CC[C@@H](O)[C@H](O)[C@H](O)CO` [2-deoxyglucose] the “effect on Ab-induced platelet particle formation” value ([1]; inhibitor at 3 (unit uncertain)) was “unsuccessful”.

In the case of `CC1CNCCN1S(=O)(=O)c1cccc2cnccc12` (stereo not drawn) [H-7], the “effect on Ab-induced platelet particle formation” value ([1]; inhibitor at 40 uM) is reported as “unsuccessful”.

In the case of “CAPESIEFPVSEARVLED [GPIIIa49-66 peptide]”, the “inhibition of HUVEC ADAMTS-18 induced oxidation fragmentation” value [2] is given as “about 50%” and the “prevention or reversal of murine thrombocytopenia induced by anti-GPIIIa49-66 Ab” value [3] is given as “prevented or reversed”.

With calpastatin the “effect on Ab-induced platelet particle formation” value ([1]; inhibitor at 100 uM) was “unsuccessful”.

With `CCCCC[C@H](O)/C=C/[C@H]1[C@H](O)CC(=O)[C@@H]1CCCCCCC(=O)O` [PGE1] the “oxidative fragmentation/death in the presence of the agent” value ([1]; agent at 1 μM, n=6) was “not induced”.

For `CNc1ccc2oc(C[C@H]3O[C@@]4(CC[C@H]3C)O[C@H]([C@H](C)C(=O)c3ccc[nH]3)[C@H](C)C[C@H]4C)nc2c1C(=O)O` [A23187, calcimycin], the “induction of platelet oxidation/fragmentation” value [4] was “induced”, the “oxidation of platelets loaded with the oxidative fluorochrome DCHF” value [4] was “induce oxidation” and the “reactivity (platelet oxidation) in KO mouse platelets” value [5] was “absent”.

With superoxide dismutase the “effect on Ab-induced platelet particle formation” value [1, 7] was “inhibited”.

For catalase, the “effect on Ab-induced platelet particle formation” value [1, 7] was “could inhibit the reaction; also recorded: inhibited” and the “effect of oxidation scavenger on reactivity of A23187 and PMA” value [4] was “inhibited”.

In the case of `[N-]=[N+]=[N-].[Na+]` [NaAz], the “effect on Ab-induced platelet particle formation” value [1] is reported as “unsuccessful”.

With `CC[C@]1(O)C[C@@H]2CN(CCc3c([nH]c4ccccc34)[C@@](C(=O)OC)(c3cc4c(cc3OC)N(C)[C@H]3[C@@](O)(C(=O)OC)[C@H](OC(C)=O)[C@]5(CC)C=CCN6CC[C@]43[C@@H]65)C2)C1` [vinblastine] the “effect on Ab-induced platelet particle formation” value ([1]; inhibitor at 0.2 (unit uncertain)) was “unsuccessful”.

For `c1ccc2c(c1)[I+]c1ccccc1-2` [DPI, diphenyleneiodonium], the “effect on Ab-induced platelet particle formation” value [1, 7] was “inhibition; also recorded: inhibited” and the “effect of oxidation scavenger on reactivity of A23187 and PMA” value [4] was “inhibited”.

In the case of `O=S(=O)(F)Cc1ccccc1` [PMSF], the “effect on Ab-induced platelet particle formation” value [1, 8] is reported as “unsuccessful”.

For `CC(=O)N[C@@H](CC(C)C)C(=O)N[C@@H](CC(C)C)C(=O)N[C@H](C=O)CCCNC(=N)N` [leupeptin], the “effect on Ab-induced platelet particle formation” value ([1]; inhibitor at 5 ug/ml) was “unsuccessful”.

For `CCCCCCCCCCCCCC(=O)O[C@@H]1[C@@H](C)[C@@]2(O)[C@@H](C=C(CO)C[C@]3(O)C(=O)C(C)=C[C@@H]23)[C@@H]2C(C)(C)[C@]12OC(C)=O` [PMA, phorbol 12-myristate 13-acetate], the “oxidation of platelets loaded with the oxidative fluorochrome DCHF” value [4] was “induce oxidation”, the “induction of platelet oxidation/fragmentation” value ([4]; 0.4 μM) was “induced” and the “reactivity (platelet oxidation) in KO mouse platelets” value [5] was “absent”.

In the case of `O=C(O)CN(CCOCCOCCN(CC(=O)O)CC(=O)O)CC(=O)O` [EGTA, ethylenebis(oxyethylenenitrilo)tetraacetic acid], the “inhibition of Ca++ flux” value ([6]; 100 μM) is reported as “completely inhibited”.

In the case of `O=C(O)CN(CC(=O)O)c1ccccc1OCCOc1ccccc1N(CC(=O)O)CC(=O)O` [BAPTA], the “inhibition of Ca++ flux” value ([6]; 10 microM) is reported as “completely inhibited”.

For `Oc1ncnc2[nH]ncc12` [allopurinol], the “effect on Ab-induced platelet particle formation” value ([1]; inhibitor at 200 uM) was “failed to inhibit”.

For `COC(=O)CC(NC(=O)OC(C)(C)C)C(=O)CF` (stereo not drawn) [FK-011], the “effect on Ab-induced platelet particle formation” value ([1]; inhibitor at 100 uM) was “unsuccessful”.

With `COc1cc2c(c(OC)c1OC)-c1ccc(OC)c(=O)cc1[C@@H](NC(C)=O)CC2` [Colchicine] the “effect on Ab-induced platelet particle formation” value [1, 8] was “unsuccessful”.

In the case of `COc1ccc2c(c1)c(CC(=O)O)c(C)n2C(=O)c1ccc(Cl)cc1` [indomethacin], the “effect on Ab-induced platelet particle formation” value ([1]; inhibitor at 20 uM) is reported as “failed to inhibit”.

With `C=C1[C@@H](C)[C@H]2[C@H](Cc3ccccc3)NC(=O)[C@]23[C@H](OC(C)=O)/C=C/[C@@](C)(O)C(=O)[C@@H](C)C/C=C/[C@H]3[C@@H]1O` [cytochalasin D] the “effect on Ab-induced platelet particle formation” value ([1]; inhibitor at 10 uM) was “unsuccessful”.

For RGDS, the “inhibition of HUVEC ADAMTS-18 induced oxidation fragmentation” value [2] was “about 50%”.

With `CN[C@@H]1C[C@H]2O[C@@](C)([C@@H]1OC)n1c3ccccc3c3c4c(c5c6ccccc6n2c5c31)C(=O)NC4` [staurosporine] the “effect on Ab-induced platelet particle formation” value ([1]; inhibitor at 200 uM) was “unsuccessful”.

For “bio-VQTRSVHCVQQGRPSSSC—OH (Biotin-VQTRSVHCVQQGRPSSSC-OH; cysteine pairing not given here) [18-mer peptide from the C-terminal TSP motif of ADAMTS-18, conjugated to biotin]”, the platelet oxidation/fragmentation ([4]; peptide alone) was “no effect” and the platelet oxidation/fragmentation ([4]; peptide clustered with an anti-biotin antibody, n=6) was “did induce oxidation/fragmentation”.

B1: HUVEC conditioned media ADAMTS-18: ADAMTS-18 in HUVEC conditioned media (protein, UniProt Q8TE60 285-1221, looked up)
A disintegrin and …: SAGKSQKGLNVETLVVADKKMVEKHGKGNVTTYILTVMNMVSGLFKDGTIGSDINVVVVSLILLEQEPGGLLINHHADQSLNSFCQWQSALIGKNGKRHDHAILLTGFDICSWKNEPCDTLGFAPISGMCSKYRSCTINEDTGLGLAFTIAHESGHNFGMIHDGEGNPCRKAEGNIMSPTLTGNNGVFSWSSCSRQYLKKFLSTPQAGCLVDEPKQAGQYKYPDKLPGQIYDADTQCKWQFGAKAKLCSLGFVKDICKSLWCHRVGHRCETKFMPAAEGTVCGLSMWCRQGQCVKFGELGPRPIHGQWSAWSKWSECSRTCGGGVKFQERHCNNPKPQYGGLFCPGSSRIYQLCNINPCNENSLDFRAQQCAEYNSKPFRGWFYQWKPYTKVEEEDRCKLYCKAENFEFFFAMSGKVKDGTPCSPNKNDVCIDGVCELVGCDHELGSKAVSDACGVCKGDNSTCKFYKGLYLNQHKANEYYPVVLIPAGARSIEIQELQVSSSYLAVRSLSQKYYLTGGWSIDWPGEFPFAGTTFEYQRSFNRPERLYAPGPTNETLVFEILMQGKNPGIAWKYALPKVMNGTPPATKRPAYTWSIVQSECSVSCGGGYINVKAICLRDQNTQVNSSFCSAKTKPVTEPKICNAFSCPAYWMPGEWSTCSKACAGGQQSRKIQCVQKKPFQKEEAVLHSLCPVSTPTQVQACNSHACPPQWSLGPWSQCSKTCGRGVRKRELLCKGSAAETLPESQCTSLPRPELQEGCVLGRCPKNSRLQWVASSWSECSATCGLGVRKREMKCSEKGFQGKLITFPERRCRNIKKPNLDLEETCNRRACPAHPVYNMVAGWYSLPWQQCTVTCGGGVQTRSVHCVQQGRPSSSCLLHQKPPVLRACNTNFCPAPEKREDPSCVDFFNWCHLVPQHGVCNHKFYGKQCCKSCTRKI
modifications: natural, HUVEC conditioned media
notes: ADAMTS-18 in HUVEC conditioned media
With B1 the “time of optimum effect of activation by thrombin” value ([4]; thrombin 0.5μ/mL, then neutralized with hirudin, n=4) was “one”.
